Measured values reported in patent US7601746B2 (Shionogi & Co., Ltd., priority 2003, dated 2009).

Target: T1, human TPO receptor (hTPOR) (Homo sapiens, UniProt P40238)
T1 construct: expressed in transfected cells; host or cells: BaF-B03 (murine IL-3 dependent cell line)
T1 sequence (P40238 26-635): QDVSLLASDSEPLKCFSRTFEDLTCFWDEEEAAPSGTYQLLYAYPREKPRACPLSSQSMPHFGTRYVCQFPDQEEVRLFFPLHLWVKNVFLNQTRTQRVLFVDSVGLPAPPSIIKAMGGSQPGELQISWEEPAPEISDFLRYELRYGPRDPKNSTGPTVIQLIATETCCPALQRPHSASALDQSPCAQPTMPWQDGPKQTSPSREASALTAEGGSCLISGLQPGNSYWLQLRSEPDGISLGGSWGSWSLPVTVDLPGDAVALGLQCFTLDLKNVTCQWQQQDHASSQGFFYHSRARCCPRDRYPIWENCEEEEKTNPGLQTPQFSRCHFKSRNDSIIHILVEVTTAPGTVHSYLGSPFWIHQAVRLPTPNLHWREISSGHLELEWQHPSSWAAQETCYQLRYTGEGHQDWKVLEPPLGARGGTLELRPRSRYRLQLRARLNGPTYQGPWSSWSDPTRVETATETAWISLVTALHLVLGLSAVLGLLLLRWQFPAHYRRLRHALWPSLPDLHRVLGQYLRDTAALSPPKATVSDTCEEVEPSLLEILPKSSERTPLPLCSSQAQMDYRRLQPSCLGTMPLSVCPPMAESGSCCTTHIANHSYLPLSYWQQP
Experiment: Thrombopoietic activity: proliferation of TPO dependent BaF/hTPOR cells (WST-1, absorbance at 450 nm)
Format: cell-based
Conditions: 20 h + 4 h WST-1, ED50 = half concentration of the concentration showing the maximum thrombopoietic activity, Table 1
From the text: The TPO dependent BaF/hTPOR cell line which was established by introducing human TPO receptor (hTPOR) into BaF-B03 cells according to Collins et al (J. Cell. Physiol., 137:293-298 (1988)) was used to test the thrombopoietic activity of the present compound. The DNA sequences and encoded peptide sequences for human hTPOR have been described by Vigon et al (Proc. Natl. Acad. Sci. USA, 89:5640-5644 (1992)). TPO dose not have any ability to support proliferation of interlukin-3 dependent parental cell line BaF-B03. BAF/hTPOR cells were maintained in RPMI medium and WEHI-3B conditioned medium as a source of murine interleukin-3 (IL-3). These cells were washed and resuspended in RPMI medium without a source of murine IL-3 and seeded into each well of 96-well microtiter plates at a density of 5×10^4 cells per well in the absence or presence of various concentration of hTPO or the present compound. After incubation at 37° C. for 20 hours in the 5% CO2 incubator, 10% WST-1 reagent (Takara Biomedicals, Japan) was added to each wells and the cells were further incubated for 4 hours. The absorbance at 450 nm was measured. Tables 1 and 2 exemplify the ED50 for tested compounds of the present invention, wherein the ED50 is the half concentration of the concentration showing the maximum thrombopoietic activity.

EC50 [nM]	Molecule
0.57	3-[2,6-difluoro-4-(4-{2-fluoro-3-{1-(3-methylbutyloxypropyl)phenyl]thiazol-2-ylcarbamoyl}phenyl)-2-methylacrylic acid [Compound B18]
2.9	3-{2,6-difluoro-4,5-dihydro-4-[6-(3-ethyloxypropyl)naphtho[1,2-d]thiazol-2-ylcabamoyl]phenyl}-2-methylacrylic acid [Compound A8]
17.1	COc1c(COCCC(C)(C)C)cccc1-c1csc(NC(=O)c2cc(Cl)c(C=C(C)C(=O)O)c(Cl)c2)n1 (stereo in doubt) [Compound B1936, (Z)-3-(2,6-dichloro-4-{4-[3-(3,3-dimethylbutyloxymethyl)-2-methyloxyphenyl]thiazol-2-ylcarbamoyl}phenyl)-2-methylacrylic acid]
10.9	COC(=Cc1c(F)cc(C(=O)Nc2nc(-c3cccc(COCC(C)(C)C)c3OC)cs2)cc1F)C(=O)O (stereo in doubt) [Compound B2020, (E)-3-(4-{4-[3-(2,2-dimethylpropyloxymethyl)-2-methyloxyphenyl]thiazol-2-ylcarbamoyl}-2,6-difluorophenyl)-2-methyloxyacrylic acid]
2.27	CCCC(CCc1cccc2c1CCc1sc(NC(=O)c3cc(F)c(C=C(C)C(=O)O)c(F)c3)nc1-2)OC (centres unmarked) [Compound A1, 3-{2,6-difluoro-4-[4,5-dihydro-6-(3-methyloxyhexyl)naphtho[1,2-d]thiazol-2-ylcarbamoyl]phenyl}-2-methylacrylic acid]
4	CCCCCc1cccc2c1CCc1sc(NC(=O)c3cc(F)c(C=C(C)C(=O)O)c(F)c3)nc1-2 [Compound A2, 3-[2,6-difluoro-4-(4,5-dihydro-6-pentylnaphtho[1,2-d]thiazol-2-ylcabamoyl)phenyl]-2-methylacrylic acid]
4	CC(=Cc1c(F)cc(C(=O)Nc2nc3c(s2)CCc2c(CCC(C)(C)C)cccc2-3)cc1F)C(=O)O [Compound A3, 3-{2,6-difluoro-4-[4,5-dihydro-6-(3,3-dimethylbutyl)naphtho[1,2-d]thiazol-2-ylcabamoyl)phenyl]-2-methylacrylic acid]
1.8	COC(CCc1cccc2c1CCc1sc(NC(=O)c3cc(F)c(C=C(C)C(=O)O)c(F)c3)nc1-2)C(C)(C)C (centres unmarked) [Compound A4, 3-{2,6-difluoro-4-[4,5-dihydro-6-(3-methyloxy-4,4-dimethylpentyl)naphtho[1,2-d]thiazol-2-ylcabamoyl]phenyl}-2-methylacrylic acid]
1.91	CCCCOCCCc1cccc2c1CCc1sc(NC(=O)c3cc(F)c(C=C(C)C(=O)O)c(F)c3)nc1-2 [Compound A5, 3-{4-[6-(3-n-butyloxypropyl)-4,5-dihydronaphto[1,2-d]thiazol-2-ylcabamoyl]-2,6-difluorophenyl}-2-methylacrylic acid]
1.04	CC(=Cc1c(F)cc(C(=O)Nc2nc3c(s2)CCc2c(CCCOCC(C)(C)C)cccc2-3)cc1F)C(=O)O [Compound A6, 3-(2,6-difluoro-4-{4,5-dihydro-6-[3-(2,2-dimethylpropyloxy)propyl]naphtho[1,2-d]thiazol-2-ylcabamoyl}phenyl)-2-methylacrylic acid]
2.26	CC(=Cc1c(F)cc(C(=O)Nc2nc3c(s2)CCc2c(CCCOC(C)C)cccc2-3)cc1F)C(=O)O [Compound A7, 3-{2,6-difluoro-4-[4,5-dihydro-6-(3-isopropyloxypropyl)naphtho[1,2-d]thiazol-2-ylcabamoyl]phenyl}-2-methylacrylic acid]
3	CCCOCCCc1cccc2c1CCc1sc(NC(=O)c3cc(F)c(C=C(C)C(=O)O)c(F)c3)nc1-2 [Compound A9, 3-{2,6-difluoro-4-[4,5-dihydro-6-(3-n-propyloxypropyl)naphto[1,2-d]thiazol-2-ylcabamoyl]phenyl}-2-methylacrylic acid]
1.2	CCOCCCc1cccc2c1CCc1sc(NC(=O)c3cc(Cl)c(C=C(C)C(=O)O)c(Cl)c3)nc1-2 [Compound A10, 3-{2,6-dichloro-4-[4,5-dihydro-6-(3-ethyloxypropyl)naphtho[1,2-d]thiazol-2-ylcabamoyl]phenyl}-2-methylacrylic acid]
0.87	CCCCOCCCc1cccc2c1CCc1sc(NC(=O)c3cc(Cl)c(C=C(C)C(=O)O)c(Cl)c3)nc1-2 [Compound A11, 3-{4-[6-(3-n-butyloxypropyl)-4,5-dihydronaphtho[1,2-d]thiazol-2-ylcabamoyl]-2,6-dichlorophenyl}-2-methylacrylic acid]
0.8	CCCC(CCc1cccc2c1CCc1sc(NC(=O)c3cc(F)c(C=C(C)C(=O)O)c(F)c3)nc1-2)OC (centres unmarked) [Compound A12, 3-{2,6-difluoro-4-[4,5-dihydro-6-(3-methyloxyhexyl)naphtho[1,2-d]thiazol-2-ylcabamoyl]phenyl}-2-methylacrylic acid]
7.27	CCCOCCCc1cccc2c1OCc1sc(NC(=O)c3cc(Cl)c(/C=C(\C)C(=O)O)c(Cl)c3)nc1-2 [Compound A1123, (E)-3-{2,6-dichloro-4-[6-(3-propyloxypropyl)-4H-chromeno[4,3-d]thiazol-2-ylcabamoyl]phenyl}-2-methylacrylic acid]
12.9	CCCc1cccc2c1OCc1sc(NC(=O)c3cc(F)c(/C=C(\C)C(=O)O)c(F)c3)nc1-2 [Compound A1308, (E)-3-[2,6-difluoro-4-(6-propyl-4H-chromeno[4,3-d]thiazol-2-ylcabamoyl)phenyl]-2-methylacrylic acid]
12.8	C/C(=C\c1c(F)cc(C(=O)Nc2nc3c(s2)COc2c-3cccc2C(C)C)cc1F)C(=O)O [Compound A1309, (E)-3-[2,6-difluoro-4-(6-isopropyl-4H-chromeno[4,3-d]thiazol-2-ylcarbamoyl)phenyl]-2-methylacrylic acid]
12.3	CCc1cccc2c1OCc1sc(NC(=O)c3cc(Cl)c(/C=C(\C)C(=O)O)c(Cl)c3)nc1-2 [Compound A1310, (E)-3-[2,6-dichloro-4-(6-ethyl-4H-chromeno[4,3-d]thiazol-2-ylcabamoyl)phenyl]-2-methylacrylic acid]
8.86	CCCc1cccc2c1OCc1sc(NC(=O)c3cc(Cl)c(/C=C(\C)C(=O)O)c(Cl)c3)nc1-2 [Compound A1311, (E)-3-[2,6-dichloro-4-(6-propyl-4H-chromeno[4,3-d]thiazol-2-ylcabamoyl)phenyl]-2-methylacrylic acid]
10.8	C/C(=C\c1c(Cl)cc(C(=O)Nc2nc3c(s2)COc2c-3cccc2C(C)C)cc1Cl)C(=O)O [Compound A1312, (E)-3-[2,6-dichloro-4-(6-isopropyl-4H-chromeno[4,3-d]thiazol-2-ylcabamoyl)phenyl]-2-methylacrylic acid]
12.5	CCCCCCc1cccc2c1OCc1sc(NC(=O)c3cc(F)c(/C=C(\C)C(=O)O)c(F)c3)nc1-2 [Compound A1314, (E)-3-[2,6-difluoro-4-(6-hexyl-4H-chromeno[4,3-d]thiazol-2-ylcabamoyl)phenyl]-2-methylacrylic acid]
12.5	C/C(=C\c1c(F)cc(C(=O)Nc2nc3c(s2)COc2c(CCC(C)(C)C)cccc2-3)cc1F)C(=O)O [Compound A1315, (E)-3-{4-[6-(3,3-dimethylbutyl)-4H-chromeno[4,3-d]thiazol-2-ylcabamoyl]-2,6-difluorophenyl}-2-methylacrylic acid]
